Experimental data: ChEMBL document CHEMBL3603748, “Design of HIV-1 Protease Inhibitors with Amino-bis-tetrahydrofuran Derivatives as P2-Ligands to Enhance Backbone-Binding Interactions: Synthesis, Biological Evaluation, and Protein-Ligand X-ray Studies” (J Med Chem, 2015)

Tests used:
[1] = tested on: Human immunodeficiency virus 1; assay: Antiviral activity against HIV1 NL4-3 infected in human MT4 cells by XTT assay; type: functional, organism-based; conditions: Human immunodeficiency virus 1, NL4-3, MT4
[2] = tested on: Human immunodeficiency virus 1; assay: Antiviral activity against HIV1 LAI infected in human MT2 cells; type: functional, organism-based; conditions: Human immunodeficiency virus 1, LAI
[3] = tested on: Human immunodeficiency virus 1; assay: Antiviral activity against darunavir-resistant HIV1 P51 infected in human MT4 cells by XTT assay; type: functional, organism-based; conditions: Human immunodeficiency virus 1, P51, MT4
[4] = tested on: Human immunodeficiency virus 1; assay: Resistance index, ratio of EC50 for darunavir-resistant HIV1 P20 infected in human MT4 cells by XTT assay to EC50 for HIV1 NL4-3 infected in human MT4 cells by XTT assay; type: functional
Protease = Protease (Human immunodeficiency virus 1, UniProt Q9YQ12); assay: Inhibition of HIV1 protease
Chain of Protease (Q9YQ12 whole entry): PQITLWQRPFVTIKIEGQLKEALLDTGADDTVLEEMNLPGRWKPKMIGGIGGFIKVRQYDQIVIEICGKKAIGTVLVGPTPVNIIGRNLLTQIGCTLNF

[5] = tested on: Human immunodeficiency virus 1; assay: Antiviral activity against darunavir-resistant HIV1 P20 infected in human MT4 cells by XTT assay; type: functional, organism-based; conditions: Human immunodeficiency virus 1, P20, MT4
[6] = tested on: Human immunodeficiency virus 1; assay: Antiviral activity against darunavir-resistant HIV1 P10 infected in human MT4 cells by XTT assay; type: functional, organism-based; conditions: Human immunodeficiency virus 1, P10, MT4

| IC50 [2] [nM] | Ki (Protease) [nM] | Compound | EC50 [1] [nM] | EC50 [3] [nM] | Ratio EC50 [4] | EC50 [5] [nM] | EC50 [6] [nM] |
| --- | --- | --- | --- | --- | --- | --- | --- |
| 4.4 | 0.014 | COc1ccc(S(=O)(=O)N(CC(C)C)C[C@@H](O)[C@H](Cc2ccccc2)NC(=O)O[C@H]2CO[C@H]3OC[C@H](N(C)C)[C@H]32)cc1 | – | – | – | – | – |
| 7.2 | 0.014 | CCN(CC)[C@H]1CO[C@@H]2OC[C@H](OC(=O)N[C@@H](Cc3ccccc3)[C@H](O)CN(CC(C)C)S(=O)(=O)c3ccc(OC)cc3)[C@@H]21 | – | – | – | – | – |
| 4.4 | 0.014 | COc1ccc(S(=O)(=O)N(CC(C)C)C[C@@H](O)[C@H](Cc2ccccc2)NC(=O)O[C@H]2CO[C@H]3OC[C@H](NC(=O)OC(C)(C)C)[C@H]32)cc1 | – | – | – | – | – |
| 3.7 | 0.024 | COC(=O)N[C@H]1CO[C@@H]2OC[C@H](OC(=O)N[C@@H](Cc3ccccc3)[C@H](O)CN(CC(C)C)S(=O)(=O)c3ccc(OC)cc3)[C@@H]21 | – | – | – | – | – |
| 37 | 0.012 | COc1ccc(S(=O)(=O)N(CC(C)C)C[C@@H](O)[C@H](Cc2ccccc2)NC(=O)O[C@H]2CO[C@H]3OC[C@H](N(C)C(=O)OC(C)(C)C)[C@H]32)cc1 | – | – | – | – | – |
| – | 0.048 | CCN(C(=O)OC(C)(C)C)[C@H]1CO[C@@H]2OC[C@H](OC(=O)N[C@@H](Cc3ccccc3)[C@H](O)CN(CC(C)C)S(=O)(=O)c3ccc(OC)cc3)[C@@H]21 | – | – | – | – | – |

Continued, compound first:

| Compound | IC50 [2] [nM] | Ki (Protease) [nM] | EC50 [1] [nM] | EC50 [3] [nM] | Ratio EC50 [4] | EC50 [5] [nM] | EC50 [6] [nM] |
| --- | --- | --- | --- | --- | --- | --- | --- |
| COc1ccc(S(=O)(=O)N(CC(C)C)C[C@@H](O)[C@H](Cc2ccccc2)NC(=O)O[C@H]2CO[C@H]3OC[C@H](NC(C)C)[C@H]32)cc1 | 0.34 | 0.0063 | 1 | 260 | 23 | 24 | 21 |
| COc1ccc(S(=O)(=O)N(CC(C)C)C[C@@H](O)[C@H](Cc2ccccc2)NC(=O)O[C@H]2CO[C@H]3OC[C@H](N=[N+]=[N-])[C@H]32)cc1 | 4.4 | 0.0039 | – | – | – | – | – |
| COc1ccc(S(=O)(=O)N(CC(C)C)C[C@@H](O)[C@H](Cc2ccccc2)NC(=O)O[C@H]2CO[C@H]3OC[C@H](N)[C@H]32)cc1 | 48 | 0.53 | – | – | – | – | – |
| CN[C@H]1CO[C@@H]2OC[C@H](OC(=O)N[C@@H](Cc3ccccc3)[C@H](O)CN(CC(C)C)S(=O)(=O)c3ccc(OC)cc3)[C@@H]21 | 35 | 0.0015 | 29 | – | 1.1 | 32 | – |
| CN[C@H]1CO[C@@H]2OC[C@H](OC(=O)N[C@@H](Cc3ccccc3)[C@H](O)CN(CC(C)C)S(=O)(=O)c3ccc(N)cc3)[C@@H]21 | 480 | 0.0099 | – | – | – | – | – |
| CCN[C@H]1CO[C@@H]2OC[C@H](OC(=O)N[C@@H](Cc3ccccc3)[C@H](O)CN(CC(C)C)S(=O)(=O)c3ccc(OC)cc3)[C@@H]21 | 22 | 0.027 | 15 | 230 | – | – | 39 |
